Six molecules from patent publication US9320773B2, “Compounds and therapeutic applications related to inhibition of dendritic cell immunoreceptor (DCIR) activity and signaling events” (priority 2010, dated 2016) can be followed below.

Experiment [1] has as its system HIV-1 NL4-3balenv in IM-MDDCs. The experiment can be described thus: HIV-1 binding/entry in IM-MDDCs transfected with ITIM peptides (p24). It is filed as cell-based. As to conditions: peptides inserted with Pro-Ject, NL4-3balenv 60 min; result in words. On the procedure: (§1) FIG. 7A: Raji-CD4 cells were transduced with a retroviral vector expressing either a wild-type form of DCIR, a T6F mutant of DCIR, or a Y7F mutant of DCIR. Surface expression level of DCIR was assessed by flow cytometry using a combination of PE-labelled anti-DCIR antibody (dotted lines) and a control isotype-matched antibody (continuous lines). […] FIG. 7B: For the virus binding/entry assay shown in the left panel, the indicated cell lines were exposed to NL4-3. For the infection assay shown in the right panel, the same cells were exposed to NL4-3 for 2 hours at 37° C., and then maintained in culture for 9 days. FIG. 7C: IM-MDDCs were treated with Pro-Ject only, with a control peptide or an ITIM peptide, either not phosphorylated or phosphorylated on the tyrosine or threonine residue, during 5 min at 37° C. Next, cells were pulsed with NL4-3balenv for 60 min at 37° C. and washed extensively before measuring the p24 content (left panel). […] Cell-free culture supernatants were quantified by measuring the p24 content. […]
(§2) For assessing binding/entry, IM-MDDCs (3×10^5 cells in a final volume of 300 μl) transfected with one of the ITIM peptides were exposed to NL4-3balenv (30 ng of p24) for 60 min at 37° C. […] The p24 content was determined by ELISA. As for susceptibility of IM-MDDCs to HIV-1 infection, it was assessed by initially exposing 3×10^5 cells to NL4-3balenv (30 ng) for 2 hours at 37° C. […]

Experiment [2] deals with HIV-1 NL4-3balenv in IM-MDDCs. Put plainly: HIV-1 infection of IM-MDDCs transfected with ITIM peptides (p24 in supernatants). It is filed as cell-based. As to conditions: peptides inserted with Pro-Ject, NL4-3balenv 2 hours, culture up to 9 days; result in words. The method, then: as §1, §2
The test system of experiment [3] is DCIR expression in CD4+ T cells. The experiment can be described thus: HIV-1-mediated induction of DCIR expression in CD4+ T cells (flow cytometry). It is filed as cell-based, human. As to conditions: cells pre-treated before virus infection, 3 days; result in words. The method, then:
Mitogen-activated CD4^+ T cells (1×10^6) were first either left untreated or treated for 1 h with the caspase inhibitor Z-VAD-FMK (50 nM), after which HIV-1 was added (100 ng of p24), where indicated. DCIR expression was monitored 3 days later by flow cytometry. Data shown represent the means±SD of triplicate samples from three independent experiments.
Cells (1×10^6) were first either left untreated or treated for 1 h with NAC, after which HIV-1 (100 ng of p24) was added. DCIR expression was monitored 3 days later by flow cytometry. Expression of DCIR is shown as a dotted line, whereas the continuous line represents staining obtained with an isotype-matched irrelevant control Ab. Data shown correspond to a single experiment representative of 3 independent experiments.
Cell surface expression of DCIR was monitored by flow cytometric analysis (Epics ELITE ESP, Coulter Electronics, Burlington, Canada). Cells (1×10^6 cells) were incubated for 30 min with a pool of human serum to block the unspecific binding. After washing, the cells were incubated with PE-labeled anti-DCIR (0.25 μg) for 45 min at 4° C. and then washed twice with PBS and 0.5% BSA. Non-specific staining was determined by using an isotype-matched irrelevant control antibody. After two final washes with PBS, cells were fixed in 2% paraformaldehyde for 30 min and analyzed.
In general terms: In flow cytometry, cells or beads pass a laser one at a time.

In experiment [4] the test system is human primary CD4+ T cells. The experiment can be described thus: Apoptosis of HIV-1-infected and bystander CD4+ T cells (FITC-VAD-FMK staining). The experiment is classed as cell-based. As to conditions: NL4-3-IRES-HSA infected CD4+ T cells; data not shown. The source says:
The HIV-1-mediated induction of apoptosis in both infected and bystander CD4^+ T cells is a well-described phenomenon. The peak of apoptosis is observed usually after 2 to 3 days, the same time frame in which we detected the HIV-1-dependent induction of DCIR. Therefore, we next assessed whether there might be a connection between the virus-induced DCIR expression and apoptosis. We initially assessed the ability of NL4-3-IRES-HSA reporter virus to drive apoptosis in CD4^+ T cells using FITC-VAD-FMK staining. This fluorochrome-labeled pan-caspase inhibitor is a specific and convenient-to-use marker of apoptotic cells, which can identify very early events of apoptosis associated with caspase activation (i.e. pre-apoptotic cells). Our studies indicate that NL4-3-IRES-HSA virions can potently mediate apoptosis in human primary CD4^+ T cells (data not shown). […] To establish a link between DCIR expression and apoptosis following HIV-1 infection, we carried out a series of investigations with the broad-spectrum caspase inhibitor Z-VAD-FMK [94].

The test system of experiment [5] is HIV-1 NL4-3 in Raji-CD4-DCIR cells. The experiment can be described thus: HIV-1 binding/entry assay in Raji-CD4-DCIR cells (cell-associated p24 ELISA). It is filed as cell-based. As to conditions: for Binding/entry: Table 3, pharmacological inhibitors, symbols not defined; for HIV-1 binding/entry: cells pretreated with inhibitor 10 min, pulsed with NL4-3 60 min, result in words. On the procedure:
(§3) FIG. 2A: Raji-CD4 and Raji-CD4-DCIR cells were either left untreated or treated with SSG (100 μg/ml) for 10 min at 37° C. Thereafter, cells were pulsed with NL4-3 for 60 min. After three washes with PBS to remove non-adsorbed virus, cell-associated virus was quantified by measuring the p24 content. Data shown correspond to the means±SD of triplicate samples from three combined independent experiments. The asterisk denotes statistically significant data (*, P<0.05; **, P<0.01). FIG. 2B: Cells were either left untransfected or transfected with a sense or antisense oligonucleotide specific for the signalling protein of interest. Next, cells were pulsed with NL4-3 for 60 min. After three washes with PBS to eliminate unbound virus, cell-associated virus was quantified by measuring the p24 content. Data shown correspond to the means±SD of triplicate samples from three combined independent experiments. The asterisk denotes statistically significant data (*, P<0.05; **, P<0.01). After gene silencing, the diminution of the targeted protein was verified by western blots, provided as an insert for each graph.
Where indicated, parental Raji-CD4 cells (DCIR-negative) or Raji-CD4-DCIR transfectants (1×10^6) were pretreated with the indicated amount of a pharmacological inhibitor for 10 min or transfected with sense or antisense oligonucleotides as described below. Cells were then pulsed with NL4-3 (100 ng of p24) for 60 min at 37° C. Next the virus-cell mixture was washed 3 times with PBS to remove unbound virus and resuspended in PBS containing 1% BSA. To assess binding/entry, the p24 content was determined by our in-house ELISA assay^33.
Raji-CD4 and Raji-CD4-DCIR cells (1×10^6 cells) were washed with OptiMEM (Invitrogen Life Technologies) without serum and antibiotics. The phosphorothioate oligodeoxynucleotides (Listed in Table 1) (Invitrogen Life Technologies) were transfected at a final concentration of 10 μM/well^35 using Oligofectamine according to the manufacturer's instructions (Invitrogen Life Technologies). Silencing efficiency was monitored by western blot analysis.

The test system is the same in experiment [6]. Put plainly: HIV-1 infection assay in Raji-CD4-DCIR cells, real-time PCR of spliced Tat mRNA. It is filed as cell-based. As to conditions: Table 3, pharmacological inhibitors; symbols not defined. On the procedure:
FIG. 6A: Raji-CD4 and Raji-CD4-DCIR were either left untreated or preincubated with tyrosine phosphatase inhibitor SSG (100 μg/ml); Syk inhibitor piceatannol (10 μM); Src inhibitor PP2 (10 μM); classical PKC inhibitor Gö6976 (1 μM); MAPK p38 inhibitor SB203580 (2 μM), MAP kinase inhibitor PD98059 ([…]) for 10 min. FIG. 6B: Raji-CD4 and Raji-CD4-DCIR were treated with Oligofectamine and then either left untreated or exposed to a sense or an antisense oligonucleotide against different signalling proteins during 5 hours. Next, cells were exposed to NL4-3 for 24 hours. Virus infection was determined by real-time PCR of spliced Tat mRNA. Data shown correspond to the means±SD of triplicate samples from three independent experiments. The asterisk denotes statistically significant data (*, P<0.05; ***, P<0.001).
For the infection assay performed before measuring Tat mRNA, Raji-CD4 and Raji-CD4-DCIR cells were treated with the indicated inhibitor or transfected with the indicated oligonucleotide (as described below). Cells were then pulsed with NL4-3 during 24 hours. […] The expression level of Tat mRNA was measured by real-time PCR, as described below.
Expression levels of TAT splice transcripts were determined using a Rotor-Gene™ system (Corbett Life Science). […] After elution, the amount and quality of RNA was assessed by measuring the absorbance at 260 and 280 nm. […]
For orientation: Quantitative PCR measures a nucleic acid by following its amplification.

The test system of experiment [7] is HIV-1 NL4-3 in Raji-CD4 cells. Put plainly: HIV-1 binding/entry assay in parental Raji-CD4 cells (DCIR-negative). As to conditions: pretreated with inhibitor 10 min, result in words. The experiment is classed as cell-based. On the procedure: as §3, with “After gene silencing, the diminution of the targeted protein was verified by western blots, provided as an insert for each graph.” left out
Where indicated, parental Raji-CD4 cells (DCIR-negative) or Raji-CD4-DCIR transfectants (1×10^6) were pretreated with the indicated amount of a pharmacological inhibitor for 10 min or transfected with sense or antisense oligonucleotides as described below. […] To assess binding/entry, the p24 content was determined by our in-house ELISA assay^33.

Non-standard residues stand in square brackets, D forms with d. pY = N[C@@H](Cc1ccc(OP(=O)(O)O)cc1)C(=O)O; pT = C[C@@H](OP(=O)(O)O)[C@H](N)C(=O)O

“TAMRA-EIT(PO3H2)YAEVRFKNEFKS-OH ({TAMRA}-EI[pT]YAEVRFKNEFKS-OH) [ITIM peptide phosphorylated on threonine]”: the virus binding/entry entry in experiment [1] is “decrease”. For the same molecule, the “virus replication / infection” value in experiment [2] is listed as “decrease”.

For the molecule `O=C1Nc2ccc(Cl)cc2[C@@](C#CC2CC2)(C(F)(F)F)O1` [EFV, efavirenz], the “HIV-1-mediated DCIR expression” value in experiment [3] is on record as “reduced significantly”. For the same molecule, in experiment [4], the “percentages of apoptotic cells in virus-infected and bystander cells” value was “significantly reduced”.

As to “TAMRA-EITY(PO3H2)AEVRFKNES-OH ({TAMRA}-EIT[pY]AEVRFKNES-OH) [ITIM peptide phosphorylated on tyrosine]”, the virus binding/entry entry in experiment [1] is “decrease”. Also, the “virus replication / infection” value in experiment [2] was “decrease”.

As to `O=S(=O)(NCCNC/C=C/c1ccc(Br)cc1)c1cccc2cnccc12` [H89], in experiment [5], the Binding/entry result was “Ø” and the HIV-1 binding/entry entry is “not participating”. The Infection entry in experiment [6] is given as “Ø”.

`C/C(O)=C(\C#N)C(=O)Nc1cc(Br)ccc1Br` [LFM-A13]: in experiment [5], the Binding/entry result was “Ø” and the HIV-1 binding/entry result is “not involved”. Moreover, the Infection result in experiment [6] is on record as “Ø”.

Regarding `O.O.O.O.O.O.O.O.O.O=C([O-])[C@@H]1[O][Sb]2([O-])([O][Sb]34([OH])[O][C@H]([C@H](O)CO)[C@H]([O]3)[C@H](C(=O)[O-])[O]4)[O][C@H]([C@H](O)CO)[C@@H]1[O]2.[Na+].[Na+].[Na+]` [SSG, sodium stibogluconate], the figures for the HIV-1 binding/entry result in experiment [5] and in experiment [7] were “decreases” and “no similar effect”, respectively.
